Laboratory results: patent US11266715B2, “C3A receptor agonists for use against ischemic brain injury, stroke, traumatic brain injury, spinal cord injury and neurodegenerative disorders” (priority 2016, dated 2022)

Legend:
synapsin I+ puncta = assay: Synapsin I immunostaining of dorsal hippocampus after neonatal HI; type: in vivo, mouse; settings: between groups or hemispheres
Procedure: Neuronal nuclei (NeuN), growth associated protein 43 (GAP-43), synapsin I (SYN), vesicular glutamate transporter 1 (VGLUT1), Glial Fibrillary Acidic Protein (GFAP) and ionized calcium-binding adapter molecule 1 (Iba-1) were visualized in the cornu ammonis (CA) and dentate gyrus (DG) of the dorsal hippocampus by immunohistochemistry. Briefly, following heat-induced antigen retrieval with 0.01 M citrate buffer (pH 6, 0.05% Tween 20) for 3×5 min, sections were washed 3×5 min with PBS-T (0.05% Tween 20), non-specific protein binding was reduced by incubation with blocking buffer [4% normal donkey serum (NeuN and Iba-1), 1% bovine serum albumin (GAP-43 and SYN), 3% normal goat serum (VGLUT1), 2% bovine serum albumin (GFAP) in PBS-T] for 1 h at room temperature (RT). […]
(§1) NeuN positive cells, GFAP positive relative area, as well as GAP-43, SYN, and VGLUT1 positive puncta were counted by using MetaMorph software (ver. 7.8.6, Molecular Devices, CA, USA) on confocal images obtained with a 20× (NeuN and GFAP) or 63× (GAP-43, SYN, and VGLUT1) objective (Carl Zeiss LSM 700 Laser Scanning Microscope, Jena, Germany). Iba-1 positive cell somata were counted on bright field images obtained with a 20× objective (Nikon Eclipse 80i). […]

Iba-1+ cells = assay: Iba-1 positive cell density in dorsal hippocampus after neonatal HI; type: in vivo, mouse; settings: P55, 3 days treatment after HI
Procedure: On P51 (long-term study) or P55 (short-term study), mice were deeply anesthetized with thiopental [Pentothal Sodium (0.01 ml/g body weight), Hospira, Ill., USA)] and transcardially perfused with 0.9% saline, followed by 4% paraformaldehyde (PFA) in 0.1 M PBS. Brains were removed and post-fixed in 4% PFA at 4° C. for 24 h followed by 70% ethanol for 24 h. Tissue was processed using an automatic tissue processor (SAKURA Tissue Tek VIP 3000, Tournai, Belgium) and embedded in paraffin. Brains were cut at room temperature into 8-μm serial coronal sections using a sliding microtome (Microm HM 450, Thermo Scientific, Massachusetts, USA), attached to silane coated slides and dried at RT. […]
as §1

C3a: Purified human C3a peptide (Complement Technologies), C3a receptor agonist, amino acid sequence SEQ ID NO: 1
density or average area of synapsin I+ puncta in CA1 or dentate gyrus (synapsin I+ puncta): did not find any differences | density of Iba-1+ cells, ipsilateral vs contralateral (Iba-1+ cells): did not differ between the hemispheres
